Bridge positions count the residues as written; N and C are the ends. Ends that are not written are not given here.
Columns and labels:
C. albicans SC5314 [1] = assay: Murine in vivo model of disseminated candidiasis: survival and body weight; conditions: for survival efficacy: 30 days p.i.; for survival as efficacy metric compared with Cyclic Peptide 5: candidemia model, FIGS. 10 to 15; for survival by end point analysis compared with fluconazole: χ^2 analysis at day 30 p.i.; for survival of treated mice compared to saline controls, log-rank P: observed 26 days p.i.; for survival of treated mice compared to saline controls, log-rank P / survival efficacy compared with 5 mg/kg fluconazole: FIG. 9; for survival efficacy compared with 5 mg/kg fluconazole: 0.25 mg/kg Cyclic Peptide 5, 5 mg/kg RTD-1
Protocol: Mice were infected i.v. at T=0 with 3×10^5 blastospores of C. albicans genetically defined reference strain SC5314.
Mice were infected i.v. at T=0 with 3×10^5 blastospores of C. albicans SC5314. At T=24 h, mice were treated i.p. daily for 7 d w.
In activity studies the synthetic cyclic tetradecapeptide Cyclic Peptide 5 (SEQ ID NO. 6), which was identified initially as having significant antifungal activity, was used as a model peptide. Briefly, 7-8 week old, immunocompetent, female BALB/c mice were challenged i.v. at T=0 with 3×10^5 CFU of C. albicans SC5314. […]
Under these test protocols C. albicans-infected mice treated with saline presented with ruffled fur and significant weight loss, and became moribund within 5-10 days, by which time there was >30% body weight loss.

C. albicans SC5314 [2] = assay: Renal fungal burden in kidney homogenates, murine disseminated candidiasis model; type: in vivo; conditions: FIG. 16; for renal fungal burden compared with fluconazole / renal fungal burden compared with fluconazole, P (Fisher's LSD test): long term survivors 30 days p.i.
Excerpt: In activity studies the synthetic cyclic tetradecapeptide Cyclic Peptide 5 (SEQ ID NO. 6), which was identified initially as having significant antifungal activity, was used as a model peptide. Briefly, 7-8 week old, immunocompetent, female BALB/c mice were challenged i.v. at T=0 with 3×10^5 CFU of C. albicans SC5314.

[3] = tested on: susceptible and multiple drug resistant strains of C. albicans; conditions: long term, on treatment with RTD-1; cited from earlier work
C. albicans = conditions: cited from earlier work
[4] = 5 mg/kg i.p. daily for 7 d from T=24 h

Row | Molecule | survival as efficacy metric compared with Cyclic Peptide 5 (C. albicans SC5314 [1]) | survival by end point analysis compared with fluconazole (C. albicans SC5314 [1]) | renal fungal burden compared with fluconazole (C. albicans SC5314 [2]) | renal fungal burden compared with fluconazole, P (Fisher's LSD test) (C. albicans SC5314 [2]) | survival of treated mice compared to saline controls, log-rank P (C. albicans SC5314 [1]; [4]) | also measured
1 | Cyclic Peptide 4: synthetic cyclic tetradecapeptide θ-defensin analog; positions 3-14,1,2: C I C R R R A C L C R R G L (GLCICRRRACLCRR; cyclic backbone; Cyclic Peptide 4) | equivalent or superior to Cyclic Peptide 5 | more effective than fluconazole | reduced fungal burden to a greater extent than fluconazole | 0.02 |  | survival efficacy (C. albicans SC5314 [1]; 0.25 mg/kg i.p. daily for 7 d): effective
2 | Cyclic Peptide 2: synthetic cyclic tetradecapeptide θ-defensin analog; positions 3-14,1,2: C S C R R R F C I C R R G V (cyclo(GVCSCRRRFCICRR); disulfide 5-10, 3-12) | equivalent or superior to Cyclic Peptide 5 |  |  |  |  | 
3 | Cyclic Peptide 3: synthetic cyclic tetradecapeptide θ-defensin analog; positions 3-14,1,2: C I C R R R V C I C R R G V (GVCICRRRVCICRR; cyclic backbone; Cyclic Peptide 3) | equivalent or superior to Cyclic Peptide 5 | more effective than fluconazole | reduced fungal burden to a greater extent than fluconazole | 7.4×10^−3 |  | survival efficacy (C. albicans SC5314 [1]; 0.1 mg/kg i.p. daily for 7 d): effective
4 | Cyclic Peptide 1: synthetic cyclic tetradecapeptide θ-defensin analog; positions 3-14,1,2: C S C R R R F C L C R R G V (GVCSCRRRFCLCRR; cyclic backbone; Cyclic Peptide 1) | equivalent or superior to Cyclic Peptide 5 | more effective than fluconazole | reduced fungal burden to a greater extent than fluconazole | 3.5×10^−5 |  | survival efficacy (C. albicans SC5314 [1]; 0.1 mg/kg i.p. daily for 7 d): effective; survival efficacy (C. albicans SC5314 [1]; 0.25 mg/kg i.p. daily for 7 d): effective
5 | OC(Cn1cncn1)(Cn1cncn1)c1ccc(F)cc1F [Fluconazole, fluconazole, reference compound] |  |  |  |  | 3.4×10^−6 | renal fungal burden (C. albicans SC5314 [2]; 5 mg/kg, long term survivors 30 days p.i. vs moribund saline controls): reduced fungal burden
6 | Cyclic Peptide 6: synthetic cyclic tetradecapeptide θ-defensin analog; positions 3-14,1,2: C R C R R G V C R C R R G V (GVCRCRRGVCRCRR; not fully specified (bridges); ends and bridges not checked; also: cyclic (type not given here)) | equivalent or superior to Cyclic Peptide 5 | more effective than fluconazole |  |  |  | survival compared with fluconazole and Cyclic Peptide 5 (C. albicans SC5314 [1]; peptides at 0.25 mg/kg, FIG. 15): survival that exceeded that of both a prior art antifungal drug (fluconazole) and Circular Peptide 5
7 | CC[C@H](C)C[C@H](C)CCCCCCCCC(=O)N[C@H]1C[C@@H](O)[C@@H](NCCN)NC(=O)[C@@H]2[C@@H](O)CCN2C(=O)[C@H]([C@H](O)CCN)NC(=O)[C@H]([C@H](O)[C@@H](O)c2ccc(O)cc2)NC(=O)[C@@H]2C[C@@H](O)CN2C(=O)[C@H]([C@@H](C)O)NC1=O [Caspofungin, caspofungin, reference compound] |  |  |  |  | 3.4×10^−6 | 
8 | RTD-1: naturally occurring θ-defensin of rhesus monkeys, cyclic octadecapeptide with 3 disulfide bonds (cyclo(GFCRCLCRRGVCRCICTR); disulfide (positions not given here); not fully specified (bridges); also: three disulfide bonds, pairing not given here; listed as Macaca mulatta) |  |  |  |  | 3.4×10^−6 | survival efficacy compared with 5 mg/kg fluconazole (C. albicans SC5314 [1]): more effective than 5 mg/kg of fluconazole; pro-inflammatory cytokine production in vivo [3]: reduction in long term production of pro-inflammatory cytokines; in vitro antifungal activity in presence of serum (C. albicans; presence of serum): abolished by the presence of serum; in vitro active concentration relative to concentrations effective in vivo (C. albicans; vs murine animal model studies): ≥ 50 fold
9 | Cyclic Peptide 5: model synthetic cyclic tetradecapeptide θ-defensin analog; positions 3-14,1,2: C I C R R R F C L C R R G V (GVCICRRRFCLCRR; cyclic backbone; Cyclic Peptide 5) |  |  | reduced fungal burden to a greater extent than fluconazole | 3×10^−3 |  | survival efficacy compared with 5 mg/kg fluconazole (C. albicans SC5314 [1]): more effective than 5 mg/kg of fluconazole; survival efficacy compared with RTD-1 (C. albicans SC5314 [1]; 0.25 mg/kg Cyclic Peptide 5 vs 5 mg/kg RTD-1, i.p. once a day for 7 days, BALB/c mice): more effective than 5 mg/kg of RTD-1; survival of treated mice compared to saline controls, log-rank P (C. albicans SC5314 [1]; 0.25 mg/kg i.p. daily for 7 d from T=24 h): 2.3×10^−7; survival efficacy (FIG. 10) (C. albicans SC5314 [1]; 0.25 mg/kg or 0.1 mg/kg, results similar to treatment with saline): relatively ineffective

Source: patent publication US12012440B2, “Compositions and methods for treatment of fungal infections” (priority 2020, dated 2024)
